Measured values: patent publication US10086077B2, “Activated macrophage targetable drug carrier for treatment of atherosclerosis and methods of preparing the same” (Korea University Research and Business Foundation, priority 2016, dated 2018)

Legend:
[1] = test system: ApoE−/− mice; experiment: In vivo imaging of carotid atherosclerotic plaque, general and in-vivo fluorescence microscope; conditions: 14 mg/kg/week for four weeks, before vs after
Text: In order to evaluate a possibility of reducing inflammation and a size of the atherosclerotic plaque in vivo of the drug carrier encapsulated with the lobeglitazone, the drug carrier encapsulated with the lobeglitazone was administrated in mice (ApoE−/− mice) causing the atherosclerosis at a carotid branch.
More particularly, the ApoE −/− mice with the atherosclerosis are divided into three groups, and then in the first group, a drug carrier encapsulated with a mannose receptor-specific lobeglitazone was administrated (14 mg/kg/week), in the second group, the same quantity of lobeglitazone was orally administrated (14 mg/kg/week), and in the third group, a treating drug was not administrated. After the drug was administrated for four weeks, the same carotid branch portion was peeled and the size and the inflammation degree of the atherosclerotic plaque before and after treatment were observed and compared by a general microscope and an in-vivo fluorescence microscope.
Particularly, the effect of treating atherosclerosis was evaluated by comparing and analyzing an atherosclerotic size and an inflammation degree before administrating the drug and after administrating the drug for four weeks by administrating a glycol chitosan-based drug carrier (attached with a fluorescent material) capable of imaging an atherosclerotic plaque selectively bound to the mannose receptor over-expressed in the macrophage to an atherosclerotic model mouse and then peeling the carotid branch portion to image the carotid branch portion by an in-vivo fluorescence microscope.
In order to objectively quantify the inflammation degree expressed in the atherosclerotic plaque, a signal of autofluorescence or more of the atherosclerotic plaque measured in the Experimental Example 4 was extracted to quantify the range of signal expression and the degree of signal intensity.

[2] = test system: ApoE−/− mice; experiment: Histopathology of carotid atherosclerotic plaque: H&E, MAC3 and CD 206 staining; assay type: in vivo; conditions: after four weeks (FIG. 9)
Method: Further, the effect of treating atherosclerosis of the drug carrier encapsulated with the lobeglitazone was evaluated by histopathologically analyzing the size of the atherosclerotic plaque reflecting the inflammation degree of the atherosclerotic plaque, distribution of the macrophages, and expression of mannose receptors in the macrophage. The atherosclerotic plaque of the carotid extracted from the arteriosclerosis model mouse was stained by H&E staining, MAC3 staining (macrophage staining), and CD 206 staining (macrophage mannose receptor staining).
FIG. 9 is a photograph illustrating sizes of atherosclerotic plaques by using H&E staining, MAC3 staining, and CD 206 staining in the group administered with the drug carrier according to an example embodiment, the group administered orally with lobeglitazone, and the group administered with no drug. FIG. 9 is a photograph illustrating an atherosclerotic plaque in the carotid extracted from the mouse by CD 206 staining (macrophage mannose receptor staining), MAC3 staining (macrophage staining), and H&E staining, before administrating the drug and after administrating the drug for four weeks, respectively, in a group (MMR-lobe) administrated with a glycol chitosan drug carrier encapsulated with lobeglitazone, a group (PO-Lobe) orally administrated with lobeglitazone, and a group (Control) administered with no drug, respectively.

SMILES: COc1ccc(Oc2cc(N(C)CCOc3ccc(CC4SC(=O)NC4=O)cc3)ncn2)cc1 (stereo not drawn) [lobeglitazone]
- inflammation degree of the atherosclerosis ([1]; images (FIGS. 5A-5C)): not largely changed
- size of the atherosclerosis ([1]; images (FIGS. 5A-5C)): not largely changed
- fluorescence intensity expressed in the atherosclerotic plaque ([1]; quantified (FIG. 6)): no difference
- CD 206 (macrophage mannose receptor staining) ([2]; CD 206 staining): decreased
- size of the atherosclerotic plaque ([2]; H&E staining): decreased
- MAC3 (macrophage staining) ([2]; MAC3 staining): decreased
